This note sets out measurements from patent publication US11090321B2, “Mixture of non-digestible oligosaccharides for stimulating the immune system” (N.V. Nutricia, priority 2009, dated 2021).

This experiment concerns C57BL/6 mice. Nature of the experiment: Delayed-type hypersensitivity (DTH) ear swelling response after Influvac vaccination in diet-supplemented mice. In kind it is in vivo, mouse. Here is the method: The effect of diets comprising 2′-FL and/or betagalacto-oligosaccharides was tested in a mouse model wherein a response to an antigen is measured by a delayed-type hypersensitivity (DTH) response. This DTH response in the ears after local challenge with an antigen present in a vaccine is a measure of Th1 cell proliferation. During response to infection and/or vaccination Th1 cells proliferate in response to the challenge with the antigen. These Th1 cells infiltrate the ear when the ear is subsequently challenged with the antigen and cause swelling. Infiltration with the Th1 cells in the ear takes about 24 h and the swelling is therefore delayed. The more Th1 cells proliferated during initial vaccination and/or infection, the more DTH upon challenging with the antigen is observed.
6-8 Weeks old female C57BL/6 mice (Charles River) received semi-purified AIN-93G-based diets (Research Diet Service, Wijk bij Duurstede, the Netherlands), comprising
1) 1 wt % betagalacto-oligosaccharide (GOS, source Vivinal GOS, Borculo Domo), fructo-oligosaccharide (FOS, Source RaftilineHP, Orafti) and galacturonic acid oligosaccharide (source AOS) in a 9:1:1.1 ratio. AOS were produced from pectin (Südzucker AG, Mannheim, Germany), with a DP of 1-20. It consists of approximately 75% galacturonic acid oligomers, based on total weight,
2) 1 wt % 2′fucosyllactose (2′-FL),
3) 1 wt % betagalacto-oligosaccharides, fructo-oligosaccharides and galacturonic acid oligosaccharide (AOS) in a 9:1:1.1 ratio and 1 wt % 2′-FL.
4) 0.5 wt % betagalacto-oligosaccharides, fructo-oligosaccharides and galacturonic acid oligosaccharide (AOS) in a 9:1:1.1 ratio and 0.5 wt % 2′-FL.
All groups were compared to the unsupplemented control diet (control and sham control group). Dietary supplementation started 14 days before the first vaccination and lasted until the end of the experiment, 31 days after the first vaccination.
Vaccination experiments were performed using Influvac (Solvay Pharmaceuticals, Weesp, the Netherlands) from season 2005/2006. The mice received a primary vaccination and a booster vaccination, consisting of a subcutaneous (sc) injection of a 1:1 mix of vaccine and adjuvant in a total volume of 100 μl. The booster vaccination was given at 21 days after the primary vaccination. The experiments ended 10 days after booster vaccination. Negative control groups that were included received injections with a 1:1 mix of PBS and adjuvant in a total volume of 100 μl (sham control). Ear thickness was measured in duplicate before vaccine challenge and 24 h thereafter, using a digital micrometer (Mitutoyo Digimatic 293561, Veenendaal, the Netherlands). The DTH response was calculated by subtracting the basal ear thickness from the value at 24 h after challenge.

On to 2′-fucosyllactose [1% 2′-FL], for which the “increase of DTH response” value (compared with control diet) is given as 71%. Also, the “effect on ear swelling / DTH response (in words)” value (compared with control-fed animals) was “increased ear swelling”. For the same substance, under “ear swelling DTH minus sham control”, the “Δ DTH” value turned out to be 80.4 μm. Also, the “Relative DTH” value (Δ DTH relative to control diet (=1)) came out at 1.71.
